According to patent EP4667458A1 (Kanaph Therapeutics Inc., priority 2023, dated 2024):

The compounds below were run against T1, KRAS^G12C::SOS1 (Homo sapiens, UniProt Q07889) (assay: KRAS G12C::SOS1 protein-protein interaction (PPI) inhibition assay (HTRF binding kit)).
T1 sequence (Q07889 1-1333): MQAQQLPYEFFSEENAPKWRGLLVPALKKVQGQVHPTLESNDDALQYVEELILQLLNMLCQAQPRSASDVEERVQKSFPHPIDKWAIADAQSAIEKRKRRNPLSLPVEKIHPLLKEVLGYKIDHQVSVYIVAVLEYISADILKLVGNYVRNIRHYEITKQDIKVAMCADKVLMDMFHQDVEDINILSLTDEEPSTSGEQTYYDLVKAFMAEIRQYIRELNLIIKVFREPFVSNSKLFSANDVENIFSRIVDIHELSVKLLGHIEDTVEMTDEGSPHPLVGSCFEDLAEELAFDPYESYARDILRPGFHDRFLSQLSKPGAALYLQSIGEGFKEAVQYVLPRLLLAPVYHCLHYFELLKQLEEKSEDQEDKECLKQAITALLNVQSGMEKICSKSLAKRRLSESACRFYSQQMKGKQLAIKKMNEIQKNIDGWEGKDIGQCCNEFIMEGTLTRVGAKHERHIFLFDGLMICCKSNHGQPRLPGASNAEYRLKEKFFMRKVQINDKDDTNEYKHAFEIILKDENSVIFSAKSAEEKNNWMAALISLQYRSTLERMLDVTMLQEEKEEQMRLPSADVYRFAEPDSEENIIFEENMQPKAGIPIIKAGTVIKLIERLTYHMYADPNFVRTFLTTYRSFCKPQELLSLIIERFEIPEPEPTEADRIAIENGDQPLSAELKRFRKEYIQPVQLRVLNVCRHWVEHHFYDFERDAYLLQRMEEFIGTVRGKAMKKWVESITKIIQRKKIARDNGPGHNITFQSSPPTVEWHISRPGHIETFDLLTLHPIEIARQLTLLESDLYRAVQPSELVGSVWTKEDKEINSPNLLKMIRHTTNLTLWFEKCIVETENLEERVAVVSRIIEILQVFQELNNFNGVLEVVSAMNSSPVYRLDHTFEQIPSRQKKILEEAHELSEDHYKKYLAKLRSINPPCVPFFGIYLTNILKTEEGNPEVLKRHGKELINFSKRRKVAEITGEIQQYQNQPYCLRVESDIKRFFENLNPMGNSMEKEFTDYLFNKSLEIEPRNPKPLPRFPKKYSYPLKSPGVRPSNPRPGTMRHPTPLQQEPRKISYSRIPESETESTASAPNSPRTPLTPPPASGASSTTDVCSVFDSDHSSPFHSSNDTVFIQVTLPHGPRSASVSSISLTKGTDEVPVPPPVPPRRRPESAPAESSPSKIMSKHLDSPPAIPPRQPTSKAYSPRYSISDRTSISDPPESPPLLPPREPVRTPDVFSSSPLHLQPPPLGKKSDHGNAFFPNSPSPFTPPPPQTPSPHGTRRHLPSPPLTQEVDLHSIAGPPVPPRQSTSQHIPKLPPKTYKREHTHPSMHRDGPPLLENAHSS

Structure (SMILES) | IC50 [nM]
C[C@@H](NC(=O)c1ccc(=O)n(-c2cccc(C(=O)OC(C)(C)C)c2)n1)c1cc(N)cc(C(F)(F)F)c1 [Example 248, Tert-butyl 3-[3-[[(1R)-1-[3-amino-5-(trifluoromethyl)phenyl]ethyl]carbamoyl]-6-oxo-pyridazin-1-yl]benzoate] | < 1000
C[C@@H](NC(=O)c1ccc(=O)n(-c2cccc(-c3cnnn3C)c2F)n1)c1cccc(C(F)(F)CO)c1F [Example 358, N-[(1R)-1-[3-(1,1-difluoro-2-hydroxy-ethyl)-2-fluoro-phenyl]ethyl]-1-[2-fluoro-3-(3-methyltriazol-4-yl)phenyl]-6-oxo-pyridazine-3-carboxamide] | < 1000
C[C@@H](NC(=O)c1nn(-c2cccnc2F)c(=O)c2ccsc12)c1cc(N)cc(C(F)(F)F)c1 [Example 311, N-[(1R)-1-[3-amino-5-(trifluoromethyl)phenyl]ethyl]-5-(2-fluoro-3-pyridyl)-4-oxo-thieno[2,3-d]pyridazine-7-carboxamide] | < 1000
CNCc1ccc(F)cc1-c1ccc([C@@H](C)NC(=O)c2ccc(=O)n(-c3cccc(-c4cnnn4C)c3)n2)s1 [Example 413] | < 1000
C[C@@H](NC(=O)c1ccc(=O)n(-c2cccc(-c3ccnn3C)c2)n1)c1cccc(C(F)(F)CO)c1F [Example 332, N-[(1R)-1-[3-(1,1-difluoro-2-hydroxy-ethyl)-2-fluoro-phenyl]ethyl]-1-[3-(2-methylpyrazol-3-yl)phenyl]-6-oxo-pyridazine-3-carboxamide] | < 1000
Cc1ncc(-n2nc(C(=O)N[C@H](C)c3cc(N)cc(C(F)(F)F)c3)ccc2=O)s1 [Example 385, N-[(1R)-1-[3-amino-5-(trifluoromethyl)phenyl]ethyl]-1-(2-methylthiazol-5-yl)-6-oxo-pyridazine-3-carboxamide] | < 1000
C[C@@H](NC(=O)c1ccc(=O)n(-c2cccc(-c3cnnn3C)c2)c1)c1cc(N)cc(C(F)(F)F)c1 [Example 326, N-[(1R)-1-[3-amino-5-(trifluoromethyl)phenyl]ethyl]-1-[3-(3-methyltriazol-4-yl)phenyl]-6-oxo-pyridine-3-carboxamide] | < 1000
C[C@@H](NC(=O)c1nn(-c2ccccc2F)c(=O)cc1NS(C)(=O)=O)c1cc(N)cc(C(F)(F)F)c1 [Example 384, N-[(1R)-1-[3-amino-5-(trifluoromethyl)phenyl]ethyl]-1-(2-fluorophenyl)-4-(methanesulfonamido)-6-oxo-pyridazine-3-carboxamide] | < 1000

Next, values leading:

IC50 [nM] | Structure (SMILES)
< 1000 | C[C@@H](NC(=O)c1ccc(=O)n(-c2cccc(C(=O)N3CCNCC3)c2)n1)c1cc(N)cc(C(F)(F)F)c1 [Example 250, N-[(1R)-1-[3-amino-5-(trifluoromethyl)phenyl]ethyl]-6-oxo-1-[3-(piperazine-1-carbonyl)phenyl]pyridazine-3-carboxamide]
< 1000 | C[C@@H](NC(=O)c1ccc(=O)n(-c2ccccc2F)n1)c1cccc(C(F)(F)CN(C)C)c1F [Example 257, N-[(1R)-1-[3-[2-(dimethylamino)-1,1-difluoro-ethyl]-2-fluorophenyl]ethyl]-1-(2-fluorophenyl)-6-oxo-pyridazine-3-carboxamide]
< 1000 | C[C@@H](NC(=O)c1ccc(=O)n(-c2cccc(-c3cncs3)c2)n1)c1cccc(C(F)(F)CO)c1F [Example 339, N-[(1R)-1-[3-(1,1-difluoro-2-hydroxy-ethyl)-2-fluorophenyl]ethyl]-6-oxo-1-(3-thiazol-5-ylphenyl)pyridazine-3-carboxamide]
< 1000 | C[C@@H](NC(=O)c1ccc(=O)n(-c2ccccc2)n1)c1cccc(S(F)(F)(F)(F)F)c1 [Example 190, 6-oxo-N-[(1R)-1-[3-(pentafluoro-λ6-sulfanyl)phenyl]ethyl]-1-phenyl-pyridazine-3-carboxamide]
< 1000 | COc1ccc(-n2nc(C(=O)N[C@H](C)c3cc(N)cc(C(F)(F)F)c3)ccc2=O)cc1C(=O)N(C)C [Example 207, N-[(1R)-1-[3-amino-5-(trifluoromethyl)phenyl]ethyl]-1-[3-(dimethylcarbamoyl)-4-methoxy-phenyl]-6-oxo-pyridazine-3-carboxamide]
